Columns and labels:
[1] = system: Intramacrophagic amastigotes of L. amazonensis; assay: Growth inhibition of intramacrophagic amastigotes of L. amazonensis in RAW 264.7 (SYBRGREEN, qPCR); format: cell-based, Leishmania amazonensis
Text: (§1) A strain of Leishmania amazonensis (MHOM/BR/73/M2269) were used. Dronedarone hydrochloride and meglumine antimoniate were supplied by Sanofi. Amphotericin B (désoxycholate) and miltefosine were bought at Sigma-Aldrich.
2/Intramacrophagic amastigotes of L. amazonensis (parasites hosted in macrophages, as found in dermis, during the cutaneous Leishmaniosis infection).
(§2) The first cellular model which cultivates in a medium based on M199, allows defining the intrinsic activity of a substance on the parasite itself while the second cellular model integrates the capacity of the substance to cross the membrane of the macrophage and that of the phagolysosome. The used macrophages are cells RAW 264.7, which cultivate in medium based on DMEM with 10% of foetal serum of veal. • Determination of the IC50 of each of the molecules
(§3) Solutions of dronedarone in the DMSO, meglumine antimoniate and miltefosine in the water, and amphotericin B in an isotonic glucose solution (G5) were prepared before every experiment. The evaluations in vitro were the object of three independent experiments duplicate. The assays were realized by quantifying the parasitic DNA with the SYBRGREEN as described by Audisio and al. (Eur. J. Med. Chem., 52: 44-50, 2012) as well as by qPCR for intramacrophagic amastigotes with amplification of the alpha-tubuline of the parasite. The results obtained with both methods are similar.

[2] = system: Axenic amastigotes of L. amazonensis; assay: Growth inhibition of axenic amastigotes of L. amazonensis (SYBRGREEN DNA quantification); format: cell-based, Leishmania amazonensis; conditions: 72 hours of contact
Text: as §1
1/Axenic amastigotes of L. amazonensis (isolated parasites)
as §2, §3

[3] = system: macrophages (cells RAW 264.7); assay: Cytotoxicity on macrophages, Blue Trypan; format: cell-based, human
Experimental: (§4) Study of the cytotoxicity on macrophages (cells RAW 264.7)
(§5) The non-toxic maximal concentration (CMA) was determined by the technique to the Blue Trypan according to has method described in Audisio and al. (Eur. J. Med. Chem., 52: 44-50, 2012).

[4] = system: axenic amastigotes of L. donovani; assay: Growth inhibition of axenic amastigotes of L. donovani; format: cell-based; conditions: Leishmania donovani, 72 hours
Text: (§6) Strains of Leishmania donovani (MHOM/ET/67/HU3) and Leishmania major (MHOM/SU/73/5-ASKH) were used for this study.
(§7) 1/Axenic amastigotes of L. donovani and L. major (isolated parasites)
(§8) The model of axenic amastigotes is cultivated in a medium based on M199 and allows defining the intrinsic activity of a substance on the parasite itself while the model of intramacrophagic amastigotes integrates the capacity of the substance to cross the membrane of the macrophage and that of the phagolysosome.
(§9) The solutions of dronedarone in the DMSO, meglumine antimoniate and miltefosine in the water, were prepared before every experiment. The evaluations in vitro were the object of three independent experiments.
(§10) The assays were realized by quantifying the parasitic DNA with the SYBRGREEN as described by Audisio and al. (Eur. J. Med. Chem., 52: 44-50, 2012).

[5] = system: L. major's axenic amastigotes; assay: Growth inhibition of axenic amastigotes of L. major; format: cell-based, Leishmania major; conditions: 72 hours
Text: as §6, §7, §8, §9, §10

[6] = system: Leishmania amazonensis strains resistant to meglumine antimoniate; assay: Chemosensitivity of L. amazonensis strains resistant to meglumine antimoniate, promastigote form; format: cell-based
Experimental: In vitro study on Leishmania amazonensis strains resistant to meglumine antimoniate (Glucantime®)
On Leishmania amazonensis strains resistant to_meglumine antimoniate (IC50=200 mM) under promastigote form, chemosensitivity to dronedarone is similar that one observed on strains that are not resistant to meglumine antimoniate (active principle of Glucantime®).

[7] = system: L. major's intramacrophagic amastigotes; assay: Growth inhibition of intramacrophagic amastigotes of L. major in RAW 264.7; format: cell-based, Leishmania major
Text: as §6
(§11) 2/Intramacrophagic amastigotes of L. donovani and L. major (parasites hosted in macrophages, as found in dermis, during the cutaneous Leishmaniosis infection).
as §8
(§12) The used macrophages are cells RAW 264.7, which cultivate in a medium based on DMEM with 10% of foetal serum of veal.
as §9, §10

[8] = system: intramacrophagic amastigotes of L. donovani; assay: Growth inhibition of intramacrophagic amastigotes of L. donovani in RAW 264.7; format: cell-based, Leishmania donovani
Text: as §6, §11, §8, §12, §9, §10

[9] = Cytotoxicity on macrophages, Blue Trypan; format: cell-based, human
Experimental: as §4, §5

[10] = RAW 264.7 macrophages, Blue Trypan
[11] = Leishmania major, RAW264.7, 72 hours
[12] = Leishmania amazonensis, RAW264.7, RAW 264.7, 72 hours of contact
[13] = Leishmania donovani, RAW264.7, 72 hours

Molecule | IC50 ([1]; RAW 264.7, 72 hours of contact) | IC50 [2] | non-toxic maximal concentration (CMA) [3, 10] | IC50 [4] | IC50 ([5]; Leishmania major) | chemosensitivity compared with strains not resistant to meglumine antimoniate [6] | therapeutic index (CC50/IC50) [7] | IC50 [7, 11] | IC50 [1, 12] | therapeutic index (CC50/IC50) [8] | IC50 [8, 13] | IC50 ([2]; Leishmania amazonensis) | CC50 [9] | non-toxic maximal concentration (CMA) ([3]; human) | IC50 [5] | IC50 ([7]; 72 hours) | IC50 ([8]; 72 hours)
C[C@@H]1[C@H](O)[C@@H](C)/C=C/C=C/C=C/C=C/C=C/C=C/C=C/[C@H](O[C@@H]2O[C@H](C)[C@@H](O)[C@H](N)[C@@H]2O)C[C@@H]2O[C@](O)(C[C@@H](O)C[C@@H](O)[C@H](O)CC[C@@H](O)C[C@@H](O)CC(=O)O[C@H]1C)C[C@H](O)[C@H]2C(=O)O [amphotericin B] | 0.047 ± 0.005 µM | 0.031 ± 0.002 µM | 6.25 µM |  |  |  |  |  |  |  |  |  |  |  |  |  | 
CCCCc1oc2ccc(NS(C)(=O)=O)cc2c1C(=O)c1ccc(OCCCN(CCCC)CCCC)cc1 [dronedarone, 2-n-Butyl-3-[4-(3-di-n-butylaminopropoxy)benzoyl]-5-methylsulphonamidobenzofuran] |  |  |  | 47.4 ± 6.27 µM | 2.55 ± 0.51 µM | similar | > 9 | 1.32 ± 0.12 µM | 0.5 ± 0.22 µM | > 7 | 1.67 ± 0.1 µM | 0.34 ± 0.06 µM | > 12.5 µM | 12.5 µM |  |  | 
meglumine antimoniate | 134 ± 10.4 µM | 908 ± 159 µM | > 200 µM |  |  |  |  |  |  |  |  |  |  |  | > 1000 µM | 348 ± 79.9 µM | 390 ± 40.5 µM
CCCCCCCCCCCCCCCCOP(=O)([O-])OCC[N+](C)(C)C [miltefosine] |  |  |  | 13 ± 1.25 µM | 5.57 ± 1.5 µM |  |  | 0.72 ± 0.11 µM | 1.87 ± 0.032 µM |  | 0.88 ± 0.1 µM | 0.9 ± 0.2 µM |  | 50 µM |  |  | 
